Publication PMC10877564, “Activity of Gut-Derived Nisin-like Lantibiotics against Human Gut Pathogens and Commensals” (ACS Chemical Biology, 2024)
Positions of bridges follow the written chain, without caps; N, C: chain ends. Non-standard residues stand in square brackets, D forms with d. No end group written: not given here. Abu = CC[C@H](N)C(=O)O; Dhb = C/C=C(\N)C(=O)O; Dha = C=C(N)C(=O)O

What was measured:
[1] = Liposome permeabilization assay, liposomes without lipid II; assay type: biochemical; details: 375 nM lantibiotic; DOPC, 50 µM phospholipid; pyranine fluorescence, 30 min; three replicates; Figure S7
Experimental: (§1) To further investigate the mechanisms of action of these nisin-like lantibiotics, we performed liposome permeabilization assays using liposomes with or without lipid II (Figure S7).
(§2) Liposome Permeabilization Assay
(§3) To prepare pyranine encapsulated liposomes, DOPC (25 mg/mL in CHCl3, purchased from Avanti) was deposited into a vial and mixed with lipid II (dissolved in 2:1 CHCl3: MeOH, prepared chemoenzymatically).6 The solvent was removed using a stream of N2 leaving a thin film. Residual solvent was removed by storing it overnight in a vacuum desiccator. The film was rehydrated in buffer (5 mM Tricine, 5 mM MES, 5 mM NaCl, 1 mM pyranine pH = 6.0) and suspended with vortexing. The suspension was subjected to freeze-thaw three times before extrusion through a […] polycarbonate filter (21 passes). Excess pyranine was removed by passing the liposome solution through a Sephadex G-50 column previously equilibrated with buffer (5 mM Tricine, 5 mM MES, 5 mM NaCl, pH = 6.0). The eluted liposome solution containing the highest concentration of encapsulated pyranine (as determined visually with a UV lamp) was immediately placed on ice. Phospholipid concentration was determined by NMR as described previously.7 To measure liposome permeabilization, to a 96 well black polystyrene plate was added buffer (5 mM Tricine, 5 mM MES, 5 mM NaCl, pH = 8.0; 97 µL) and liposome solution (3 µL; 50 µM phospholipid concentration during assay). The wells were allowed to equilibrate for 8 min at room temperature then antibiotic was added. The antibiotic concentration in each well was 375 nM.
(§4) Pyranine fluorescence was monitored for 30 min then Triton X-100 was added to a final concentration of 0.1% and pyranine fluorescence was monitored for an additional 5 min. The pyranine fluorescence signal was max-min normalized. […]
(§5) Fig. S7 Liposome permeabilization assays of nisin-like lantibiotics. (A) Scheme of liposome […]
(§6) low fluorescence. Fluorescence increases upon liposome permeabilization and pH increase . (B) Fraction of liposomes permeabilized by lantibiotics (375 nM). Liposomes were composed of DOPC with or without 0.1 mol% lipid II. Error bars represent the standard of deviation of three […]
(§7) (1 picture or pasted object on this page, not shown here)

[2] = system: Coprococcus eutactus MSK.18.32; assay: MIC assay, anaerobic broth dilution; assay type: cell-based; details: Coprococcus eutactus MSK.18.32; anaerobic, BHIS, 37 °C, 48 h, 3-fold serial dilution
Source text: (§8) Antibiotic treatment may result in collateral damage to commensal bacteria in the human microbiome, leading to dysbiosis and susceptibility to various diseases.[44] How lantibiotics impact Gram-positive commensals from the human gut has remained unclear. Therefore, we performed antimicrobial activity tests of these lantibiotics against selected Gram-positive human gut commensals, most of which belong to the Lachnospiraceae family, one of the most abundant bacterial families in the human gut.[27] In general, human gut commensals were more susceptible to the set of investigated lantibiotics compared to pathogens (Figure 3).
Elution Buffer (4 M guanidine hydrochloride, 20 mM Tris HCl, pH 7.5 at 25 °C, 100 mM NaCl, 1 M imidazole). Peptides eluted from the Ni resin were concentrated and desalted using 3 kDa Amicon filters (Millipore). For leader peptide removal, the peptide (1:20 trypsin to peptide) was incubated with the trypsin protease in 50 mM Tris-HCl, pH 8 overnight at 37 °C. Lastly, the core peptides were further purified with HPLC using an Agilent 1200 instrument (Agilent) as specified in general methods. About 1.5 mg recombinant peptide was obtained after HPLC purification per […]
(§9) All MIC assays were performed under anaerobic condition. […] Lantibiotics were dissolved in DPBS, and concentrations were determined by BCA assay (Pierce) according to the manufacturer’s protocol. […]

[3] = Liposome permeabilization assay, liposomes with lipid II; assay type: biochemical; details: 375 nM lantibiotic; DOPC with 0.1 mol% lipid II, 50 µM phospholipid; pyranine fluorescence, 30 min, room temperature; three replicates; Figure S7B
Experimental: as §1, §2, §3, §4, §5, §6, §7

F. fissicatena MSK.9.3 = assay: MIC assay, anaerobic broth dilution; assay type: cell-based, Faecalicatena fissicatena; details: BHIS, 37 °C, 48 h, 3-fold serial dilution
Source text: as §8
Elution Buffer (4 M guanidine hydrochloride, 20 mM Tris HCl, pH 7.5 at 25 °C, 100 mM NaCl, 1 M imidazole). Peptides eluted from the Ni resin were concentrated and desalted using 3 kDa Amicon filters (Millipore). For leader peptide removal, the peptide (1:20 trypsin to peptide) was incubated with the trypsin protease in 50 mM Tris-HCl, pH 8 overnight at 37 °C. Lastly, the core peptides were further purified with HPLC using an Agilent 1200 instrument (Agilent) as specified […]
in general methods. […]
Isolation of human gut commensal bacteria […]
as §9

## nisin A (I[Dhb]AI[Dha]LC[Abu]PGCK[Abu]GALMGCNMK[Abu]A[Abu]CHCSIHV[Dha]K; thioether 8-11, 13-19, 23-26, 25-28, 3-7; UniProt P13068 24-57, looked up) [prototypical class I lantibiotic produced by L. lactis, food preservative; commercial nisin A]
[1]
  permeabilization of liposomes without lipid II compared to liposomes with lipid II (in words): decreased permeabilization activities
[2]
  nisin A MIC: 0.0110 µM
[3]
  permeabilization of lipid II-containing liposomes (in words): strongly induced permeabilization
F. fissicatena MSK.9.3
  nisin A MIC: 0.0329 µM
